According to US8377458B2, “Cooling sensation agent composition, sensory stimulation agent composition and use of the same” (Takasago International Corporation, priority 2009, dated 2013):

Experiments:
[1] = system: inside of upper parts of arms; assay: Test of a cooling towel (washing processed), sensory evaluation; assay type: in vivo, human (panelists); conditions: for total score of the ranking numbers (cooling effect on treated hand towel after washing): 1% in washing detergent
Protocol: The hand towel thus prepared and those after further air-dried for 24 hours or 48 hours were brought into contact with the inside of upper parts of arms, and the cooling action thereof was determined organoleptically. Meanwhile, the evaluation was carried out by five panelists having 5 years or longer experience. The above compounds, mixtures and menthoxypropanediol were divided into three groups of A to C (group A; […] The results are shown by the total score of the ranking numbers. […] In other words, smaller total score means to show a better cooling sensation effect.

[2] = system: inside of upper parts of arms; assay: Test of a cooling towel (direct spraying), sensory evaluation; assay type: in vivo, human (panelists)
Protocol: Those which were air-dried for 10 minutes, 3 hours or 24 hours after spraying were sensory evaluated. The sensory evaluation was carried out by touching the cooling towel with the inside of upper parts of arms, and cooling action at that time was determined. Meanwhile, the evaluation was carried out by five panelists having 5 years or longer experience. […] The results are shown by the total score of the ranking numbers. In other words, smaller total score means to show a better cooling sensation effect.

[3] = Group A (4 samples ranked by 5 panelists, smaller = better), after 6 hr air drying
[4] = Group A, after 24 hr, smaller = better
[5] = Group A, after 48 hr, smaller = better
[6] = Group A (5 samples ranked by 5 panelists, smaller = better), direct spraying 1 g of 1% ethanol solution, after 10 min air drying
[7] = Group A, direct spraying, after 3 hr air drying, smaller = better
[8] = Group A, direct spraying, after 24 hr air drying, smaller = better
[9] = Group B, direct spraying, after 10 min air drying, smaller = better
[10] = Group B, direct spraying, after 3 hr air drying, smaller = better
[11] = Group B, direct spraying, after 24 hr air drying, smaller = better
[12] = Group B, after 6 hr, smaller = better
[13] = Group B, after 24 hr, smaller = better
[14] = Group B, after 48 hr, smaller = better
[15] = Group C, after 6 hr, smaller = better
[16] = Group C, after 24 hr, smaller = better
[17] = Group C, after 48 hr, smaller = better
[18] = Group C, direct spraying, after 10 min air drying, smaller = better
[19] = Group C, direct spraying, after 3 hr air drying, smaller = better
[20] = Group C, direct spraying, after 24 hr air drying, smaller = better

CC1CCC(C(C)C)C(OCCOC(=O)CCC(=O)OC2CC(C)CCC2C(C)C)C1 (stereo not drawn) [Compound 1, l-menthyl-(l-menthoxyethyl)succinic ester]
total score of the ranking numbers (cooling effect on treated hand towel after washing) [1, 3]: 11
total score of the ranking numbers (cooling effect on treated hand towel after washing) [1, 4]: 10
total score of the ranking numbers (cooling effect on treated hand towel after washing) [1, 5]: 13
total score of the ranking numbers (cooling effect on treated hand towel) [2, 6]: 18
total score of the ranking numbers (cooling effect on treated hand towel) [2, 7]: 12
total score of the ranking numbers (cooling effect on treated hand towel) [2, 8]: 11

CC(C)[C@@H]1CC[C@@H](C)C[C@H]1O [Compound 1-Menthol, l-menthol, reference compound]
total score of the ranking numbers (cooling effect on treated hand towel) [2, 6]: 6
total score of the ranking numbers (cooling effect on treated hand towel) [2, 7]: 24
total score of the ranking numbers (cooling effect on treated hand towel) [2, 8]: 25
total score of the ranking numbers (cooling effect on treated hand towel) [2, 9]: 7
total score of the ranking numbers (cooling effect on treated hand towel) [2, 10]: 24
total score of the ranking numbers (cooling effect on treated hand towel) [2, 11]: 25
cooling action (in words) ([2]; direct spraying, after air drying for 10 minutes): strongest cooling action
lasting / consistency of cooling action (in words) ([2]; direct spraying, over 10 min to 24 hr): less consistent

CC(C)[C@@H]1CC[C@@H](C)C[C@H]1OCC(O)COC(=O)CCC(=O)O[C@@H]1C[C@H](C)CC[C@H]1C(C)C (stereo partly drawn) [Compound 2, l-menthyl-3-(l-menthoxy)-2-(hydroxypropyl)succinic ester]
total score of the ranking numbers (cooling effect on treated hand towel after washing) [1, 3]: 13
total score of the ranking numbers (cooling effect on treated hand towel after washing) [1, 4]: 11
total score of the ranking numbers (cooling effect on treated hand towel after washing) [1, 5]: 12
total score of the ranking numbers (cooling effect on treated hand towel) [2, 6]: 18
total score of the ranking numbers (cooling effect on treated hand towel) [2, 7]: 13
total score of the ranking numbers (cooling effect on treated hand towel) [2, 8]: 13

C=C(C)C1CCC(C)CC1OC(=O)CCC(=O)OC1CC(C)CCC1C(C)C (stereo not drawn) [Compound 3, l-menthyl-(l-isopulegyl)succinic ester]
total score of the ranking numbers (cooling effect on treated hand towel after washing) [1, 12]: 11
total score of the ranking numbers (cooling effect on treated hand towel after washing) [1, 13]: 10
total score of the ranking numbers (cooling effect on treated hand towel after washing) [1, 14]: 10
total score of the ranking numbers (cooling effect on treated hand towel) [2, 9]: 16
total score of the ranking numbers (cooling effect on treated hand towel) [2, 10]: 10
total score of the ranking numbers (cooling effect on treated hand towel) [2, 11]: 10

CC(C)=CCCC(C)CCOC(=O)CCC(=O)OC1CC(C)CCC1C(C)C (stereo not drawn) [Compound 4, l-menthyl-(l-citronellyl)succinic ester]
total score of the ranking numbers (cooling effect on treated hand towel after washing) [1, 15]: 10
total score of the ranking numbers (cooling effect on treated hand towel after washing) [1, 16]: 12
total score of the ranking numbers (cooling effect on treated hand towel after washing) [1, 17]: 11
total score of the ranking numbers (cooling effect on treated hand towel) [2, 18]: 16
total score of the ranking numbers (cooling effect on treated hand towel) [2, 19]: 18
total score of the ranking numbers (cooling effect on treated hand towel) [2, 20]: 16

CC1CCC(C(C)C)C(OC(=O)CCCC(=O)OCCc2ccccc2)C1 (stereo not drawn) [Compound 6, l-menthyl-(phenylethyl)glutaric ester]
total score of the ranking numbers (cooling effect on treated hand towel after washing) [1, 12]: 13
total score of the ranking numbers (cooling effect on treated hand towel after washing) [1, 13]: 14
total score of the ranking numbers (cooling effect on treated hand towel after washing) [1, 14]: 14
total score of the ranking numbers (cooling effect on treated hand towel) [2, 9]: 17
total score of the ranking numbers (cooling effect on treated hand towel) [2, 10]: 14
total score of the ranking numbers (cooling effect on treated hand towel) [2, 11]: 14

CC(C)=CCCC(C)CCOC(=O)CCCC(=O)OC1CC(C)CCC1C(C)C (stereo not drawn) [Compound 7, l-menthyl-(l-citronellyl)glutaric ester]
total score of the ranking numbers (cooling effect on treated hand towel) [2, 18]: 15
total score of the ranking numbers (cooling effect on treated hand towel) [2, 19]: 17
total score of the ranking numbers (cooling effect on treated hand towel) [2, 20]: 18

CC1CCC(C(C)C)C(OCCOC(=O)CCCC(=O)OC2CC(C)CCC2C(C)C)C1 (stereo not drawn) [Compound 8, l-menthyl-(l-menthoxyethyl)-glutaric ester]
total score of the ranking numbers (cooling effect on treated hand towel after washing) [1, 15]: 13
total score of the ranking numbers (cooling effect on treated hand towel after washing) [1, 16]: 13
total score of the ranking numbers (cooling effect on treated hand towel after washing) [1, 17]: 13
total score of the ranking numbers (cooling effect on treated hand towel) [2, 18]: 13
total score of the ranking numbers (cooling effect on treated hand towel) [2, 19]: 12
total score of the ranking numbers (cooling effect on treated hand towel) [2, 20]: 11

CC1CCC(C(C)C)C(OC(=O)CCCC(=O)OC2CC(C)CCC2C(C)C)C1 (stereo not drawn) [Dimenthylglutaric acid, reference compound]
total score of the ranking numbers (cooling effect on treated hand towel) [2, 6]: 22
total score of the ranking numbers (cooling effect on treated hand towel) [2, 7]: 20
total score of the ranking numbers (cooling effect on treated hand towel) [2, 8]: 21
total score of the ranking numbers (cooling effect on treated hand towel) [2, 9]: 22
total score of the ranking numbers (cooling effect on treated hand towel) [2, 10]: 20
total score of the ranking numbers (cooling effect on treated hand towel) [2, 11]: 19
total score of the ranking numbers (cooling effect on treated hand towel) [2, 18]: 22
total score of the ranking numbers (cooling effect on treated hand towel) [2, 19]: 21
total score of the ranking numbers (cooling effect on treated hand towel) [2, 20]: 23

CC1CCC(C(C)C)C(OCC(O)CO)C1 (stereo not drawn) [Menthoxypropanediol, l-menthoxypropanediol, reference compound]
total score of the ranking numbers (cooling effect on treated hand towel after washing) [1, 3]: 19
total score of the ranking numbers (cooling effect on treated hand towel after washing) [1, 4]: 20
total score of the ranking numbers (cooling effect on treated hand towel after washing) [1, 5]: 19
total score of the ranking numbers (cooling effect on treated hand towel after washing) [1, 12]: 18
total score of the ranking numbers (cooling effect on treated hand towel after washing) [1, 13]: 19
total score of the ranking numbers (cooling effect on treated hand towel after washing) [1, 14]: 20
total score of the ranking numbers (cooling effect on treated hand towel after washing) [1, 15]: 19
total score of the ranking numbers (cooling effect on treated hand towel after washing) [1, 16]: 20
total score of the ranking numbers (cooling effect on treated hand towel after washing) [1, 17]: 19
cooling action (in words) ([1]; after the washing treatment and 6 hours of air drying): almost no cooling action was observed
